# From the supplement of paper PMC8617591
# Legend:
# [1] = tested on: Mycobacterium tuberculosis Erdman (autoluminescent); experiment: FIC90 (Loewe) at 90% inhibition (log2); higher = more antagonistic
# Protocol: (§1)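 DiaMOND equipotent two-drug combination dose responses against autoluminescent M. tuberculosis Erdman in 8 in vitro models. Read-out is OD600, or luminescence for the intracellular and dormancy models, normalised to untreated wells. Hill-fit Einf, AUC25 and GRinf are potency metrics; FIC50 and FIC90 are Loewe-additivity fractional inhibitory concentrations, given as log2 (negative = synergy). Replicates are averaged.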
# [2] = tested on: Mycobacterium tuberculosis Erdman (autoluminescent); experiment: FIC50 (Loewe) at 50% inhibition (log2); higher = more antagonistic
# Protocol: as §1
# [3] = tested on: Mycobacterium tuberculosis Erdman (autoluminescent); experiment: Einf, fitted maximum growth inhibition of combination (fraction); higher = stronger maximal inhibition
# Protocol: as §1
# [4] = tested on: Mycobacterium tuberculosis Erdman (autoluminescent); experiment: AUC25, normalised area under dose response up to IC25 (fraction (0-1)); higher = more potent at low dose
# Protocol: as §1
# [5] = tested on: Mycobacterium tuberculosis Erdman (autoluminescent); experiment: GRinf, maximum normalised growth rate inhibition (unitless (-1 to 1)); higher = less effect (negative = killing)
# Protocol: as §1
# [6] = in vitro model: acidic pH 5.7, time point: terminal (~4-5 doublings, model-specific)
# [7] = in vitro model: butyrate, time point: constant (~7 days, model-specific)
# [8] = in vitro model: butyrate, time point: terminal (~4-5 doublings, model-specific)
# [9] = in vitro model: cholesterol 0.05 mM, time point: terminal (~4-5 doublings, model-specific)
# [10] = in vitro model: cholesterol-high 0.2 mM, time point: terminal (~4-5 doublings, model-specific)
# [11] = in vitro model: dormancy (butyrate + nitrate, low O2), time point: constant (~7 days, model-specific)
# [12] = in vitro model: dormancy (butyrate + nitrate, low O2), time point: terminal (~4-5 doublings, model-specific)
# [13] = in vitro model: intracellular J774, time point: constant = terminal
# [14] = in vitro model: standard 7H9 glycerol, time point: constant = terminal
# [15] = in vitro model: valerate, time point: terminal (~4-5 doublings, model-specific)
# [16] = in vitro model: acidic pH 5.7, time point: constant (~7 days, model-specific)
# [17] = in vitro model: cholesterol 0.05 mM, time point: constant (~7 days, model-specific)
# [18] = in vitro model: cholesterol-high 0.2 mM, time point: constant (~7 days, model-specific)
# [19] = in vitro model: valerate, time point: constant (~7 days, model-specific)
structure (smiles),measurement,setting,value
NNC(=O)c1ccncc1 [isoniazid] + CO[C@H]1/C=C/O[C@@]2(C)Oc3c(C)c(O)c4c(O)c(c(/C=N/N5CCN(C)CC5)c(O)c4c3C2=O)NC(=O)/C(C)=C\C=C\[C@H](C)[C@H](O)[C@@H](C)[C@@H](O)[C@@H](C)[C@H](OC(C)=O)[C@@H]1C [rifampicin],FIC90,[1]; [6],0.0584
same,FIC90,[1]; [7],0.359
same,FIC90,[1]; [8],0.0846
same,FIC90,[1]; [9],0.49
same,FIC90,[1]; [10],0.101
same,FIC90,[1]; [11],-1.07
same,FIC90,[1]; [12],-0.256
same,FIC90,[1]; [13],-0.336
same,FIC90,[1]; [14],-0.093
same,FIC90,[1]; [15],0.119
same,FIC50,[2]; [16],0.156
same,FIC50,[2]; [6],0.263
same,FIC50,[2]; [7],0.279
same,FIC50,[2]; [8],0.0238
same,FIC50,[2]; [17],0.41
same,FIC50,[2]; [9],0.0977
same,FIC50,[2]; [18],-0.107
same,FIC50,[2]; [10],0.355
same,FIC50,[2]; [11],-0.181
same,FIC50,[2]; [12],-0.539
same,FIC50,[2]; [14],0.445
same,FIC50,[2]; [19],0.511
same,FIC50,[2]; [15],0.396
same,Einf,[3]; [16],0.91
same,Einf,[3]; [6],0.99
same,Einf,[3]; [7],0.932
same,Einf,[3]; [8],0.973
same,Einf,[3]; [17],0.655
same,Einf,[3]; [9],0.897
same,Einf,[3]; [18],0.91
same,Einf,[3]; [10],1
same,Einf,[3]; [11],0.931
same,Einf,[3]; [12],0.989
same,Einf,[3]; [13],0.966
same,Einf,[3]; [14],0.914
same,Einf,[3]; [19],0.866
same,Einf,[3]; [15],0.943
same,AUC25,[4]; [16],0.0799
same,AUC25,[4]; [6],0.0614
same,AUC25,[4]; [7],0.1
same,AUC25,[4]; [8],0.0861
same,AUC25,[4]; [17],0.107
same,AUC25,[4]; [9],0.0769
same,AUC25,[4]; [18],0.0535
same,AUC25,[4]; [10],0.0593
same,AUC25,[4]; [11],0.0607
same,AUC25,[4]; [12],0.0631
same,AUC25,[4]; [14],0.0779
same,AUC25,[4]; [19],0.0388
same,AUC25,[4]; [15],0.0262
same,GRinf,[5]; [16],-0.381
same,GRinf,[5]; [6],-0.3
same,GRinf,[5]; [7],-0.0416
same,GRinf,[5]; [8],-0.0152
same,GRinf,[5]; [17],0.0341
same,GRinf,[5]; [9],-0.0891
same,GRinf,[5]; [18],-0.249
same,GRinf,[5]; [10],-0.696
same,GRinf,[5]; [11],0.104
same,GRinf,[5]; [12],-0.205
same,GRinf,[5]; [13],-0.212
same,GRinf,[5]; [14],0.103
same,GRinf,[5]; [19],0.0415
same,GRinf,[5]; [15],0.032
NNC(=O)c1ccncc1 [isoniazid] + COc1c(N2C[C@@H]3CCCN[C@@H]3C2)c(F)cc2c(=O)c(C(=O)O)cn(C3CC3)c12 [moxifloxacin],FIC90,[1]; [6],0.444
same,FIC90,[1]; [7],0.134
same,FIC90,[1]; [8],-0.0232
same,FIC90,[1]; [9],0.468
same,FIC90,[1]; [18],0.277
same,FIC90,[1]; [10],0.00349
same,FIC90,[1]; [11],-0.385
same,FIC90,[1]; [12],0.553
same,FIC90,[1]; [13],0.465
same,FIC90,[1]; [14],0.332
same,FIC90,[1]; [15],0.294
same,FIC50,[2]; [16],0.476
same,FIC50,[2]; [6],0.361
same,FIC50,[2]; [7],0.0921
same,FIC50,[2]; [8],0.0505
same,FIC50,[2]; [17],0.0749
same,FIC50,[2]; [9],0.0269
same,FIC50,[2]; [18],0.049
same,FIC50,[2]; [10],0.314
same,FIC50,[2]; [11],0.000113
same,FIC50,[2]; [12],0.0985
same,FIC50,[2]; [14],0.317
same,FIC50,[2]; [19],0.215
same,FIC50,[2]; [15],0.279
same,Einf,[3]; [16],0.704
same,Einf,[3]; [6],0.923
same,Einf,[3]; [7],0.926
same,Einf,[3]; [8],0.969
same,Einf,[3]; [17],0.756
same,Einf,[3]; [9],0.962
same,Einf,[3]; [18],0.953
same,Einf,[3]; [10],0.995
same,Einf,[3]; [11],0.91
same,Einf,[3]; [12],0.985
same,Einf,[3]; [13],0.993
same,Einf,[3]; [14],0.981
same,Einf,[3]; [19],0.863
same,Einf,[3]; [15],0.94
same,AUC25,[4]; [16],0.108
same,AUC25,[4]; [6],0.0673
same,AUC25,[4]; [7],0.0638
same,AUC25,[4]; [8],0.0457
same,AUC25,[4]; [17],0.121
same,AUC25,[4]; [9],0.096
same,AUC25,[4]; [18],0.079
same,AUC25,[4]; [10],0.057
same,AUC25,[4]; [11],0.076
same,AUC25,[4]; [12],0.0785
same,AUC25,[4]; [14],0.0762
same,AUC25,[4]; [19],0.0691
same,AUC25,[4]; [15],0.0467
same,GRinf,[5]; [16],-0.263
same,GRinf,[5]; [6],-0.118
same,GRinf,[5]; [7],-0.0481
same,GRinf,[5]; [8],-0.0694
same,GRinf,[5]; [17],-0.309
same,GRinf,[5]; [9],-0.301
same,GRinf,[5]; [18],-0.524
same,GRinf,[5]; [10],-0.639
same,GRinf,[5]; [11],0.143
same,GRinf,[5]; [12],-0.158
same,GRinf,[5]; [13],-0.405
same,GRinf,[5]; [14],-0.218
same,GRinf,[5]; [19],0.0468
same,GRinf,[5]; [15],0.0344
NNC(=O)c1ccncc1 [isoniazid] + NC(=O)c1cnccn1 [pyrazinamide],FIC90,[1]; [6],-0.784
same,FIC90,[1]; [7],0.439
same,FIC90,[1]; [8],-0.0985
same,FIC90,[1]; [10],0.4
same,FIC90,[1]; [11],-0.165
same,FIC90,[1]; [12],-0.412
same,FIC90,[1]; [13],0.267
same,FIC90,[1]; [15],0.67
same,FIC50,[2]; [16],-0.176
same,FIC50,[2]; [6],0.19
same,FIC50,[2]; [7],-0.141
same,FIC50,[2]; [8],-0.11
same,FIC50,[2]; [9],-0.117
same,FIC50,[2]; [18],0.321
same,FIC50,[2]; [10],0.538
same,FIC50,[2]; [11],-0.543
same,FIC50,[2]; [12],-0.16
same,FIC50,[2]; [14],-0.124
same,FIC50,[2]; [19],-0.102
same,FIC50,[2]; [15],0.196
same,Einf,[3]; [16],0.857
same,Einf,[3]; [6],0.977
same,Einf,[3]; [7],0.931
same,Einf,[3]; [8],0.954
same,Einf,[3]; [17],0.758
same,Einf,[3]; [9],0.951
same,Einf,[3]; [18],0.908
same,Einf,[3]; [10],0.995
same,Einf,[3]; [11],0.897
same,Einf,[3]; [12],0.984
same,Einf,[3]; [13],0.964
same,Einf,[3]; [14],0.861
same,Einf,[3]; [19],0.78
same,Einf,[3]; [15],0.839
same,AUC25,[4]; [16],0.097
same,AUC25,[4]; [6],0.0846
same,AUC25,[4]; [7],0.0844
same,AUC25,[4]; [8],0.053
same,AUC25,[4]; [17],0.112
same,AUC25,[4]; [9],0.119
same,AUC25,[4]; [18],0.0915
same,AUC25,[4]; [10],0.0717
same,AUC25,[4]; [11],0.0844
same,AUC25,[4]; [12],0.0579
same,AUC25,[4]; [14],0.0332
same,AUC25,[4]; [19],0.0637
same,AUC25,[4]; [15],0.0551
same,GRinf,[5]; [16],-0.422
same,GRinf,[5]; [6],-0.338
same,GRinf,[5]; [7],0.0223
same,GRinf,[5]; [8],0.0459
same,GRinf,[5]; [17],-0.252
same,GRinf,[5]; [9],-0.372
same,GRinf,[5]; [18],-0.322
same,GRinf,[5]; [10],-0.664
same,GRinf,[5]; [11],0.244
same,GRinf,[5]; [12],-0.119
same,GRinf,[5]; [13],-0.218
same,GRinf,[5]; [14],0.248
same,GRinf,[5]; [19],0.208
same,GRinf,[5]; [15],0.173
